Source: PubChem BioAssay AID179 (DTP/NCI, 2004)
pEC50, pIC50: −log10 of the molar value. The source made the active and inactive calls.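 Rule for the calls: active = compounds giving half or more protection of infected cells from virus-caused growth loss, again on retest; inactive = the rest.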

Tested on: CEM cells HIV-1 protection, formazan growth assay
Experiment: NCI AIDS Antiviral Assay
Conditions: for pIC50: measured here: growth of uninfected CEM cells
Summary of the method: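 Five concentrations of each compound were applied to infected and uninfected human CEM cells. Protection from HIV-1 was judged from growth measured with a soluble formazan assay.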

| Compound | outcome | pEC50 | pIC50 |
| --- | --- | --- | --- |
| CN1C(=O)CC2(C)c3cc(O)ccc3N(C)C12 (stereo unspecified) | inactive | – | – |
| Cc1cc(S(=O)(=O)NC2=NCCCN2)c(S)cc1Cl | – | < 3.59 | 4.19 |
| CN1C/C(=C\c2cccs2)C(=O)/C(=C/c2cccs2)C1 | – | < 3.70 | 4.85 |
| CN1c2c(C(=O)NCCCN3CCOCC3)nn(-c3cccc(C(F)(F)F)c3)c2-c2ccccc2S1(=O)=O | – | < 4.18 | < 4.18 |
| Cc1c([N+](=O)[O-])oc2c1C(=O)N([N+](=O)[O-])CCC2 | – | < 4.05 | < 4.05 |
| O=C(Nc1ccc(/C=C\c2ccc(NC(=O)c3cc(S(=O)(=O)O)ccc3O)cc2S(=O)(=O)O)c(S(=O)(=O)O)c1)c1cc(S(=O)(=O)O)ccc1O | – | 4.15 | < 4.00 |
| CCCn1c(SCC)c2cc3cc4ccccc4cc3cc2c1-c1nc(F)nc(F)n1 | – | < 4.51 | 4.65 |
| O=C1/C(=C/c2cccs2)NC(=S)N1CN1CCOCC1 | – | < 3.70 | 4.46 |
| CC(=O)OCC1OC(n2c3c(c(-c4ccc(C)cc4)c(C#N)c2=S)C(=O)CC(C)(C)C3)C(OC(C)=O)C(OC(C)=O)C1OC(C)=O (stereo unspecified) | – | < 3.70 | 4.78 |
| COc1ccc2c(c1)c1c(n2CCN(C)C)-c2cccc(OC)c2CC1 | – | < 3.70 | 4.96 |
| CN(C)C(=S)Oc1ccc2ccc(=O)oc2c1 | – | < 3.70 | < 3.70 |
| CC(=O)Nc1ccc(-n2[nH]c(=O)n(C)c2=O)cc1 | – | < 4.00 | < 4.00 |
| CCCCc1c2c(nc3c1CC/C(=C\c1ccccc1)C3=O)CCCC2 | – | < 5.38 | 5.48 |
| O=C(/C=C/c1ccccc1)/C=N/N1C(=S)N(c2ccccc2)C(=Nc2ccccc2)C1=Nc1ccccc1 | – | < 3.70 | < 3.70 |
| CCCCCCCCCCCCN1C=C(C(N)=O)C(S(=O)(=O)O)c2ccccc21 (stereo unspecified) | – | 5.18 | 4.60 |
| CC12c3ccccc3C(OC=O)(c3ccccc31)C1(C)c3ccccc3C2(OC=O)c2ccccc21 | – | < 5.51 | < 5.51 |
| COC1=CC2=CCC3C(CC[C@@]4(C)C3CC[C@@H]4C(C)=O)[C@@]2(C)CC1 (stereo partly specified) | – | < 3.70 | 4.13 |
| COc1cc(C2[C@H]3C(=O)N(c4ccc(Cc5ccc(N6C(=O)[C@@H]7ON(c8ccccc8)C(c8cc(OC)c(OC)c(OC)c8)[C@@H]7C6=O)cc5)cc4)C(=O)[C@H]3ON2c2ccccc2)cc(OC)c1OC (stereo partly specified) | – | < 5.25 | < 5.25 |
| CC(C)OC(=O)c1cccnc1/C=N/O | – | < 2.92 | 3.95 |
| COC(=O)C1CCC(=O)N1C(c1ccc2c(c1)OCO2)c1cc(OC)c(OC)c(OC)c1 (stereo unspecified) | – | < 3.70 | < 3.70 |
| COc1ccc(C(=O)C#Cc2cnc(OC)nc2OC)cc1 | – | < 5.70 | 6.44 |

| Compound | outcome | pEC50 | pIC50 |
| --- | --- | --- | --- |
| O=C1NN=C2CCCCCC12 (stereo unspecified) | – | < 3.23 | < 3.23 |
| O=C(CCCn1ccnc1[N+](=O)[O-])NCCn1cnc([N+](=O)[O-])c1 | – | < 3.70 | < 3.70 |
| COc1ccc2nc(NC(=O)C(=O)C(C#N)c3ccc([N+](=O)[O-])cc3)sc2c1 (stereo unspecified) | inactive | – | – |
| COc1ccc(NC(=O)C2C(=O)N(c3ccc(OC)cc3)C(=O)/C2=N\NC(N)=O)cc1 (stereo unspecified) | – | < 4.21 | < 4.21 |
| C(/C=N/NC1=NCCCN1)=N\NC1=NCCCN1 | – | 3.79 | < 3.70 |
| [N-]=[N+]=Nc1ccc(S(=O)(=O)Oc2cc(OS(=O)(=O)c3ccc(N=[N+]=[N-])cc3)cc(OS(=O)(=O)c3ccc(N=[N+]=[N-])cc3)c2)cc1 | – | < 5.39 | < 5.39 |
| O=C(/C=C/c1ccccc1)CSc1ncn[nH]1 | – | < 3.70 | 4.92 |
| CCC(C(=O)c1ccc(OC)c(OC)c1)N(C(=O)C(F)(F)F)C(C)c1ccccc1 (stereo unspecified) | – | < 3.70 | < 3.70 |
| NC(Cc1ccc(O)cn1)C(=O)O (stereo unspecified) | – | < 3.70 | < 3.70 |
| N#CC1CCCCC1NC1(C#N)CCCCC1 (stereo unspecified) | – | < 3.71 | < 3.71 |
| CC1(O)Cn2c(nc3nccnc32)S1 (stereo unspecified) | – | < 3.22 | 4.50 |
| Cc1cn(C2CC(Sc3ccccn3)C(CO)O2)c(=O)[nH]c1=O (stereo unspecified) | – | < 3.43 | 3.50 |
| NC1=NN(c2ccccc2)C2(O)c3ccncc3C3=NN(c4ccccc4)C(=O)C132 (stereo unspecified) | – | < 3.70 | < 3.70 |
| CCOC(=O)c1cc(-c2ccc(OC)cc2)c([N+](=O)[O-])n1C | – | < 3.70 | 4.49 |
| S=C1N(c2ccc(Br)cc2)C2=Nc3ccccc3SC(=C2N=Nc2ccccc2Cl)N1c1ccc(Cl)cc1 | – | < 4.46 | 5.17 |
| CN/C=C(/c1ccc(OC)cc1)C(O)c1ccc(OC)c(OC)c1 (stereo unspecified) | – | < 3.12 | 3.55 |
| COc1ccc(C2NC(=O)N3C(c4ccc(OC)cc4)NC(=O)N23)cc1 (stereo unspecified) | inactive | – | – |
| O=C1C(Cl)=C(c2ccc(Cl)s2)C(=O)c2ccccc21 | – | < 4.37 | 5.12 |
| OCC(O)C(O)C(O)C(O)c1nn[nH]n1 (stereo unspecified) | inactive | – | – |
| COc1cc2cc(C(=O)N3CC(CCl)c4c3cc([N+](=O)[O-])c3ccccc43)[nH]c2c(OC)c1OC (stereo unspecified) | – | < 5.00 | 5.62 |
| COc1ccc(S(=O)(=O)N/N=C(\C)CN2C(=O)c3ccccc3C2=O)cc1OC | – | < 3.36 | < 3.36 |

| Compound | outcome | pEC50 | pIC50 |
| --- | --- | --- | --- |
| CC1(C)OCC2OC3(c4nc(C#N)c(N)o4)OC(C)(C)OC3C2O1 (stereo unspecified) | – | < 4.30 | < 4.30 |
| CC(=O)NC1C(OCc2ccccc2)OC(CO)C(O)C1OC(C)C(=O)N[C@@H](C)C(=O)N[C@H](CCC(=O)OCCNc1c2ccccc2nc2cccc([N+](=O)[O-])c12)C(N)=O (stereo partly specified) | – | < 7.70 | 9.47 |
| COc1ccc(/C=C(\C)C=C(C#N)C#N)cc1 | – | < 4.35 | 4.46 |
| CCOC(=O)Cc1nc2nn(Cc3ccccc3)cc2c(=O)[nH]1 | – | < 3.70 | < 3.70 |
| COc1cccc(C(CC(=O)O)=NCCc2c[nH]c3ccccc23)c1C(=O)O | – | < 3.22 | 3.50 |
| O=Nc1c(O)cc(Nc2ccc(Br)cc2)c2ccccc12 | – | < 3.70 | 4.40 |
| CCOC(=O)NC(Nc1ncccn1)(C(=O)OCC)C(F)(F)F (stereo unspecified) | – | < 3.70 | < 3.70 |
| OC[C@H]1CC(c2nn[nH]n2)[C@H](O)[C@@H]1O (stereo partly specified) | – | < 3.70 | < 3.70 |
| Cn1c2ccc3cc2c(=S)c2cc(ccc21)OCCOCCOCCOCCOCCOCCO3 | – | < 3.70 | 3.73 |
| CCOC(=O)C(CC/C=C\c1ccccc1)N1CCC[C@H]1C(=O)OC (stereo partly specified) | inactive | – | – |
| COc1cc2c(c(OC)c1OC)C(=O)[C@H](Br)[C@H]2NC(=O)NCCCl | – | < 3.70 | 4.49 |
| O=C1C2Nc3ccccc3SC2C(=O)N1c1cccc([N+](=O)[O-])c1 (stereo unspecified) | – | < 4.26 | < 4.26 |
| Cc1ccc(C(=C2Sc3ccccc3S2)C(=C2Sc3ccccc3S2)c2ccc(C)s2)s1 | – | < 3.70 | < 3.70 |
| CCOP(=O)(OCC)C(c1ccc(F)cc1)N(C(=O)NC(F)(F)F)c1cccc(C(F)(F)F)c1 (stereo unspecified) | – | < 3.70 | 3.84 |
| CN(C)c1ccc(/C=C2\C=Nc3ccccc32)cc1 | – | < 4.68 | 4.85 |
| COc1ccc(N=C2S/C(=N\C(=Nc3ccccc3)SCc3ccccc3)N(c3ccccc3)C2=Nc2ccc(OC)cc2)cc1 | – | < 3.70 | 3.92 |
| Cc1cc(C)nc(NS(=O)(=O)c2ccc(NC(=O)c3ccc(Cl)c4c(Nc5ccc(S(=O)(=O)N=C(N)N)cc5)c5ccccc5nc34)cc2)n1 | – | < 4.45 | 4.51 |
| COc1ccc(CCNCc2cccc(OC)c2OC)cc1OC | inactive | – | – |
| CC1=NN(c2ccc(S(=O)(=O)O)cc2)C(=O)C1N=Nc1ccc(-c2ccc(N=Nc3ccc(OS(=O)(=O)c4ccc(C)cc4)cc3)c(S(=O)(=O)O)c2)cc1 (stereo unspecified) | – | 4.00 | 3.82 |
| c1cc(N(CCn2cccn2)CCn2cccn2)cc(N(CCn2cccn2)CCn2cccn2)c1 | inactive | – | – |
| Cc1cn(CC2=NCCN2)c(=O)[nH]c1=O | – | < 3.70 | < 3.70 |

| Compound | outcome | pEC50 | pIC50 |
| --- | --- | --- | --- |
| O=C1CCC(N2C(=O)c3ccccc3C2=O)C(=O)N1 (stereo unspecified) | inactive | – | – |
| CC(O)C1(CNc2cc(Cl)nc(N)n2)CC(CCc2ccccc2)C1 (stereo unspecified) | – | < 4.70 | 5.11 |
| CC/C(=C(\C#N)c1ccc(OC)cc1)c1ccc(N(C)C)cc1 | – | < 4.70 | 6.06 |
| C(=C/c1ccc2nc(-c3ccc(/C=C/C=N/NC4=NCCCN4)cc3)cn2c1)/C=N/NC1=NCCCN1 | – | < 4.00 | 4.78 |
| COc1ccc(C23OCN(c4ccccc4)C2(c2ccc(OC)cc2)c2ccccc2N3C)cc1 (stereo unspecified) | – | < 3.70 | < 3.70 |
| COC(=O)C(CCCC1(c2ccccc2)OCCO1)C(C)=O (stereo unspecified) | – | < 3.70 | < 3.70 |
| Cc1ccc(-n2c(N)c(C#N)c3c(c2=S)CCC3)cc1 | – | < 3.89 | < 3.89 |
| O=S1Nc2cccc(C(F)(F)F)c2S1 (stereo unspecified) | – | < 4.24 | < 4.24 |
| O=C(O)c1ccccc1-c1c2ccc(=O)c(I)c-2oc2c(I)c(O)ccc12 | – | < 3.50 | 4.72 |
| COC(=O)c1ccc(N=NN(C)COc2ccc(C#N)cc2)cc1 | – | < 3.70 | 4.09 |
| CN(C)P1(=S)NCC(C(C)(C)C)CO1 (stereo unspecified) | – | < 3.98 | < 3.98 |
| Cn1c(=O)c2c(c3cc(O)ccc31)OC(C(C)(C)O)C2 (stereo unspecified) | – | < 3.21 | 3.95 |
| [N-]=[N+]=Nc1cc(=O)n(-c2ccccc2)c2ccccc12 | inactive | – | – |
| CC1CC/C(=C\c2ccc(F)cc2)C2=C1C(c1ccc(F)cc1)N1C(=O)CSC1=N2 (stereo unspecified) | – | < 3.70 | 4.12 |
| CC(=O)O[C@H]1CC[C@@]2(C)C(=CC[C@@H]3C2CC[C@]2(C)Nc4[nH]ncc4CC32)C1 (stereo partly specified) | inactive | – | – |
| O=C(N/C(=C/c1cccc([N+](=O)[O-])c1)c1nc2ccc(Cl)cc2[nH]1)c1ccccc1 | inactive | – | – |
| COC(=O)c1cc2c(c3c1CC(Cc1ccccc1)C3=O)CCC2 (stereo unspecified) | – | < 3.70 | 4.48 |
| CCCNC(=O)N(CC)S(=O)(=O)c1ccc(Cl)cc1 | inactive | – | – |
| O=C1c2c(O)cc(O)c(OC3OC(CO)C(O)C(O)C3O)c2OC(c2ccc(O)c(O)c2)C1O (stereo unspecified) | – | < 3.29 | 4.24 |
| O=C1C[C@H](c2ccc(O)c(O)c2)Oc2cc(O)cc(O)c21 | – | < 3.20 | 4.01 |
| NC1Cc2ccccc2OC1=O (stereo unspecified) | – | < 3.70 | < 3.70 |
